# Results from ChEMBL document CHEMBL1143765 (Science, 2007).
# pIC50: −log10 of the molar value. The source made the active and inactive calls. No cut-off for these calls is given here.
# Assays:
# [1] = tested on: Aquifex aeolicus; experiment: Inhibition of [3H]leucine transport activity of LeuT in proteoliposomes by scintillation proximity assay
# [2] = Displacement of [3H]leucine from Aquifex aeolicus His-LeuT expressed in Escherichia coli by scintillation proximity assay
SMILES,Activity [1],pIC50 [2]
CNCCCN1c2ccccc2CCc2ccccc21 [DESIPRAMINE],Active,4.10
CNCCC(Oc1ccc(C(F)(F)F)cc1)c1ccccc1 (stereo not given) [FLUOXETINE],,3.07
CN(C)CCCN1c2ccccc2CCc2ccccc21 [IMIPRAMINE],,3.61
CNCCC=C1c2ccccc2CCc2ccccc21 [NORTRIPTYLINE],,4.12
